Assay results as given in the NIST ThermoML archive (doi:10.1016/j.fluid.2010.02.020).
Values joined by “and” are separate entries in the source; they are usually repeats but may differ in a detail not shown here. Equal values may be shown once.

Details: for mass density: 101.33 kPa, Liquid, Vibrating tube method; for surface tension liquid-gas: Pendant drop shape

CCCC[n+]1ccn(C)c1.O=S(=O)([N-]S(=O)(=O)C(F)(F)F)C(F)(F)F
Details | mass density [kg/m3] | surface tension liquid-gas
293.15 K | 1442.3 | –
303.15 K | 1432.8 | –
312.6 K | – | 31.9 mN/m
313.15 K | 1423.4 | –
313.3 K | – | 31.9 mN/m and 30.4 mN/m
323.15 K | 1414.1 | –
332.6 K | – | 30.8 mN/m
333.1 K | – | 31.2 mN/m
333.15 K | 1404.8 | –
333.5 K | – | 29.7 mN/m
343.15 K | 1395.6 | –
352.6 K | – | 30.2 mN/m
353.15 K | 1386.3 | –
353.6 K | – | 28.8 mN/m
353.7 K | – | 30.1 mN/m
363.15 K | 1377.1 | –
372.7 K | – | 27.9 mN/m
373.15 K | 1367.9 | –
373.6 K | – | 28.1 mN/m
374.1 K | – | 29.2 mN/m
383.15 K | 1358.7 | –
392.7 K | – | 26.2 mN/m
393.15 K | 1349.4 | –
393.6 K | – | 25.9 mN/m
394.2 K | – | 28.1 mN/m
403.15 K | 1340.1 | –
412.5 K | – | 26 mN/m
413.15 K | 1330.7 | –
413.6 K | – | 25.6 mN/m
414.4 K | – | 27.2 mN/m
423.15 K | 1321.2 | –
432.5 K | – | 25.6 mN/m
432.6 K | – | 24.9 mN/m
433.15 K | 1311.6 | –
434.5 K | – | 26.6 mN/m
443.15 K | 1301.9 | –
452.2 K | – | 24.4 mN/m and 24.2 mN/m
453.15 K | 1292.1 | –
455 K | – | 25.8 mN/m
463.15 K | 1282.2 | –
472 K | – | 23.3 mN/m
473 K | – | 23.7 mN/m
473.15 K | 1272 | –
475.2 K | – | 24.6 mN/m

CCCCCCCCC[n+]1ccn(C)c1.O=S(=O)([N-]S(=O)(=O)C(F)(F)F)C(F)(F)F
Details | mass density [kg/m3]
293.15 K | 1303.1
303.15 K | 1294.2
313.15 K | 1285.5
323.15 K | 1276.8
333.15 K | 1268.3
343.15 K | 1259.7
353.15 K | 1251.3
363.15 K | 1242.8
373.15 K | 1234.3
383.15 K | 1225.8
393.15 K | 1217.4
403.15 K | 1208.8
413.15 K | 1200.3
423.15 K | 1191.8
433.15 K | 1183.2
443.15 K | 1174.5
453.15 K | 1165.7
463.15 K | 1156.8
473.15 K | 1147.8

CCCCCC[n+]1ccn(C)c1.O=S(=O)([N-]S(=O)(=O)C(F)(F)F)C(F)(F)F
Details | mass density [kg/m3] | surface tension liquid-gas [mN/m]
293.15 K | 1378.1 | –
303.15 K | 1368.9 | –
313 K | – | 29.4
313.15 K | 1359.8 | –
323.15 K | 1350.8 | –
333.15 K | 1341.8 | –
333.2 K | – | 28.1
343.15 K | 1332.9 | –
353.15 K | 1324 | –
353.4 K | – | 27.2
363.15 K | 1315.2 | –
373.15 K | 1306.3 | –
373.4 K | – | 26.5
383.15 K | 1297.4 | –
393.15 K | 1288.5 | –
393.5 K | – | 25.6
403.15 K | 1279.6 | –
413.15 K | 1270.6 | –
413.3 K | – | 24.8
423.15 K | 1261.6 | –
433.15 K | 1252.4 | –
433.6 K | – | 24.2
443.15 K | 1243.2 | –
453.15 K | 1233.9 | –
453.4 K | – | 23.6
463.15 K | 1224.5 | –
473.15 K | 1214.9 | –
473.4 K | – | 21.8
493.2 K | – | 20.7
512.7 K | – | 19.3
532.4 K | – | 18.5

CCCCCCCCCCCCCCn1cc[n+](C)c1.O=S(=O)([N-]S(=O)(=O)C(F)(F)F)C(F)(F)F
Details | mass density [kg/m3] | surface tension liquid-gas [mN/m]
312.8 K | – | 26.3
323.15 K | 1193.1 | –
323.3 K | – | 24.9
333.15 K | 1184.8 | –
333.2 K | – | 23.5
333.9 K | – | 24.1
343.15 K | 1176.6 | –
353.15 K | 1168.5 | –
353.3 K | – | 23.5
354 K | – | 23.7
363.15 K | 1160.5 | –
373.15 K | 1152.4 | –
373.5 K | – | 22.1
374 K | – | 22.6
383.15 K | 1144.4 | –
393.15 K | 1136.4 | –
393.6 K | – | 21.5
394.7 K | – | 21.3
403.15 K | 1128.4 | –
413.15 K | 1120.4 | –
413.5 K | – | 20.9
414.9 K | – | 19.7
423.15 K | 1112.4 | –
433.15 K | 1104.3 | –
433.6 K | – | 18.7
434.8 K | – | 19.6
443.15 K | 1096.2 | –
453.15 K | 1088 | –
453.6 K | – | 17.5
454.5 K | – | 17.9
463.15 K | 1079.7 | –
473.15 K | 1071.4 | –
473.5 K | – | 16.6
474.5 K | – | 17
493.4 K | – | 15.9
512.9 K | – | 15.5
